Laboratory results as given in patent US20160166654A1, “COLLAGEN-TARGETED NANOPARTICLES” (PURDUE RESEARCH FOUNDATION, priority 2011, published 2016).

System: TNF-α production by human monocytes (THP-1)
Assay: TNF-α production by THP-1 cells (ELISA)
Format: cell-based
Conditions: 24 hours, FIG. 8
Method: The biocompatibility of the nanoparticles was assessed by measuring toxicity and inflammation in THP-1 cells. Cells were seeded at a density of 250,000 cells/ml in 96-well plates (Corning) and treated with 10 ng/ml phorbol 12-myristate 13-acetate (PMA, Sigma-Aldrich) for 48 hours to induce differentiation, which was confirmed by the monocytes becoming adherent. Following a change of media, cells were treated with various concentrations of core+shell nanoparticles. Control samples received PBS (negative control) or 50 ng/ml lipopolysaccharide (LPS, Sigma-Aldrich) (positive control). After 24 hours, the media was collected for cytokine analysis and an MTT-based assay was performed to determine cell toxicity using the Aqueous One Proliferation Kit (Promega) according to manufacturer's instructions. […] After two hours of incubation in the cell culture incubator, the absorbance was read at 490 nm with a correction at 650 nm.
The ability of the particles to cause an inflammatory response was determined by running conditioned cell media on a TNF-α ELISA (PeproTech) according to manufacturer instructions. […] Following incubation with a detection antibody and an avidin-horse radish peroxidase conjugate, the samples were developed with the addition of 2,2′-azino-bis(3-ethylbenzthiazoline-6-sulphonic acid) (ABTS) liquid substrate (Sigma-Aldrich) and monitored at 405 nm with a correction at 650 nm.

lipopolysaccharide
TNF-α production: did induce TNF-α production
